From article PMC8347162, “A Cyclic BMP-2 Peptide Upregulates BMP-2 Protein-Induced Cell Signaling in Myogenic Cells” (Polymers, 2021)
Read-outs that look alike come from different tables or passages of the source. Positions of bridges follow the written chain, without caps; N, C: chain ends. Residues, ends and D or L forms follow the SMILES beside them.

Target: T1, BMPRII (Homo sapiens, UniProt Q13873)
T1 construct: purchased R&D
T1 sequence (Q13873 27-151 limits assumed): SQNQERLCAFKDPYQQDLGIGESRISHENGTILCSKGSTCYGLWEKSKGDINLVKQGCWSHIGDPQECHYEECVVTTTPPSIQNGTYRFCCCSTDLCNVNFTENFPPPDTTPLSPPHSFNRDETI
Experiment: SPR binding of peptides to immobilized BMPRII
Details: for kon / koff: BMPRII immobilized on COOH5 chip (2000 RU), peptide injected 120 s at 5 μL/min, 5 min dissociation; for kon: read-out: Association Rate Constant ka; for koff: read-out: Dissociation Rate Constant kd
Description: SPR was performed using SensiQ discovery ((ICX Nomadics, Oklahoma City, OK, USA) SPR. For the affinity experiments, all the samples were dissolved in phosphate-buffered saline (PBS, pH 7.4) (UniRegion Bio-Tech, New Taipei City, Taiwan) containing 150 mM NaCl (St. Louis, MI, USA). The same buffer was also used as the running buffer. To immobilize the BMPRII, the active and reference flow cells of a COOH5 sensor chip (ICX Nomadics, Oklahoma City, OK, USA) carboxylic chip were activated with 1-ethyl-3-(3-(dimethylamino)-propyl) carbodiimide hydrochloride (EDC) and N-hydroxysuccinimide (NHS) (Cytiva, Marlborough, MA, USA) for 5 min. BMPRII protein diluted to 20 μg/mL with acetate buffer (pH4.5) (APOLO biochemical Inc., New York, NY, USA) was injected over the active cell for 3 min at 10 μL/min, resulting in an immobilization level of 2000 RU. Both the reference flow cell and active flow cell were blocked with ethanolamine (Bio Rad, Hercules, CA, USA), pH 8.5 for 6 min. The system was then switched to running buffer, and different concentrations of the peptide were injected for 120 s at 5 μL/min, with 5 min of dissociation. The binding data were analyzed using the BIA-evaluation software 3.0 (BIACORE, Uppasala, Sweden).
We first investigated the binding affinity of these five peptides for BMPRII using SPR. Each peptide was individually passed over a Sensiq […] chip pre-immobilized with BMPRII.

[1] = BMPRII immobilized on COOH5 chip, PBS pH 7.4 with 150 mM NaCl, P-02 from saturation binding curve, read-out: Equilibrium Rate Constant KD

Row | kon (PBS pH 7.4 with 150 mM NaCl) [M⁻¹ s⁻¹] | koff (PBS pH 7.4 with 150 mM NaCl) [s⁻¹] | Kd [1] [µM] | Kd (as printed in text b26 without unit, read-out: equilibrium rate constant (KD) against BMPRII) [µM] | Compound
1 | 460 | 0.0106 | 23.1 | – | CC[C@H](C)[C@@H]1NC(=O)[C@H](C)NC(=O)[C@H](CO)NC(=O)[C@H](CC(C)C)NC(=O)[C@H](CCC(=O)O)NC(=O)[C@H]([C@@H](C)O)NC(=O)[C@@H]2CCCN2C(=O)[C@H](C(C)C)NC(=O)[C@@H](NC(=O)[C@H](CO)NC(=O)[C@H](CO)NC(=O)[C@H](C)NC(=O)[C@H](CCCCN)NC(=O)[C@@H]2CCCN2C(=O)[C@@H](NC(=O)[C@@H](N)CCCCN)[C@@H](C)CC)CSSC[C@@H](C(N)=O)NC(=O)[C@H](CC(C)C)NC(=O)[C@H](Cc2ccc(O)cc2)NC(=O)[C@H](CC(C)C)NC(=O)[C@H]([C@@H](C)O)NC(=O)[C@H](CO)NC1=O [P-04] (H-KIPKASSCVPTELSAISTLYLC-NH2; disulfide 8-22)
2 | 37.8 | 0.000487 | 12.9 | – | CC[C@H](C)[C@@H]1NC(=O)[C@H](C)NC(=O)[C@H](CO)NC(=O)[C@H](CC(C)C)NC(=O)[C@H](CCC(=O)O)NC(=O)[C@H]([C@@H](C)O)NC(=O)[C@@H]2CCCN2C(=O)[C@H](C(C)C)NC(=O)[C@H](CO)NC(=O)[C@H](CO)NC(=O)[C@H](C)NC(=O)[C@H](CCCCN)NC(=O)[C@@H]2CCCN2C(=O)[C@H]([C@@H](C)CC)NC(=O)[C@H](CCCCN)NC(=O)[C@@H](N)CSSC[C@@H](C(N)=O)NC(=O)[C@H](CC(C)C)NC(=O)[C@H](Cc2ccc(O)cc2)NC(=O)[C@H](CC(C)C)NC(=O)[C@H]([C@@H](C)O)NC(=O)[C@H](CO)NC1=O [P-05] (H-CKIPKASSVPTELSAISTLYLC-NH2; disulfide 1-22)

The next lines start with the compound.

Row | Compound | kon (PBS pH 7.4 with 150 mM NaCl) [M⁻¹ s⁻¹] | koff (PBS pH 7.4 with 150 mM NaCl) [s⁻¹] | Kd [1] [µM] | Kd (as printed in text b26 without unit, read-out: equilibrium rate constant (KD) against BMPRII) [µM]
3 | CC[C@H](C)[C@H](NC(=O)[C@H](C)NC(=O)[C@H](CO)NC(=O)[C@H](CC(C)C)NC(=O)[C@H](CCC(=O)O)NC(=O)[C@@H](NC(=O)[C@@H]1CCCN1C(=O)[C@@H](NC(=O)[C@H](CO)NC(=O)[C@H](CO)NC(=O)[C@H](C)NC(=O)[C@H](CCCCN)NC(=O)[C@@H]1CCCN1C(=O)[C@@H](NC(=O)[C@@H](N)CCCCN)[C@@H](C)CC)C(C)C)[C@@H](C)O)C(=O)N[C@@H](CO)C(=O)N[C@H](C(=O)N[C@@H](CC(C)C)C(=O)N[C@@H](Cc1ccc(O)cc1)C(=O)N[C@@H](CC(C)C)C(N)=O)[C@@H](C)O [P-01] (H-KIPKASSVPTELSAISTLYL-NH2) | 0.27 | 0.0221 | – | –
4 | CC[C@H](C)[C@H](NC(=O)[C@H](C)NC(=O)[C@H](CO)NC(=O)[C@@H]1CSSC[C@H](N)C(=O)N[C@@H](CCCCN)C(=O)N[C@@H]([C@@H](C)CC)C(=O)N2CCC[C@H]2C(=O)N[C@@H](CCCCN)C(=O)N[C@@H](C)C(=O)N[C@@H](CO)C(=O)N[C@@H](CO)C(=O)N[C@@H](C(C)C)C(=O)N2CCC[C@H]2C(=O)N[C@@H]([C@@H](C)O)C(=O)N[C@@H](CCC(=O)O)C(=O)N[C@@H](CC(C)C)C(=O)N1)C(=O)N[C@@H](CO)C(=O)N[C@H](C(=O)N[C@@H](CC(C)C)C(=O)N[C@@H](Cc1ccc(O)cc1)C(=O)N[C@@H](CC(C)C)C(N)=O)[C@@H](C)O [P-03] (H-CKIPKASSVPTELCSAISTLYL-NH2; disulfide 1-14) | 352 | 0.0333 | – | –
5 | P-02: Cyclic disulfide BMP-2 peptide, N-terminal and C-terminal regions outside the cyclic structure (KIPKCSSVPTELSCISTLYL; not fully specified; Intramolecular disulfide Cys5-Cys14; probably C-terminal amide (Rink amide resin); Parent is BMP-2 mature 73-92 (offset +282) in the P) | – | – | 80.6 | 80.6
